From patent publication US9018258B2, “Substituted 1-benzylcycloalkylcarboxylic acids and the use thereof” (Bayer Intellectual Property GmbH, priority 2010, dated 2015)

Target: T1, Haem-containing sGC (Rattus norvegicus, UniProt P20595)
T1 construct: made in house; host or cells: Sf9 insect cells (baculovirus)
Assay: Stimulation of recombinant soluble guanylate cyclase (sGC) in vitro, haem-containing enzyme
Format: biochemical
Source text: Hoenicka, E. M. Becker, H. Apeler, T. Sirichoke, H. Schroeder, R. Gerzer and J.-P. Stasch, “Purified soluble guanylyl cyclase expressed in a baculovirus/Sf9 system: Stimulation by YC-1, nitric oxide, and carbon oxide”, J. Mol. Med. 77 (1999), 14-23. The haem-free guanylate cyclase is obtained by adding Tween 20 to the sample buffer (0.5% in the final concentration).
The activation of sGC by a test substance is reported as x-fold stimulation of the basal activity.

T1 sequence (P19686 whole entry partner): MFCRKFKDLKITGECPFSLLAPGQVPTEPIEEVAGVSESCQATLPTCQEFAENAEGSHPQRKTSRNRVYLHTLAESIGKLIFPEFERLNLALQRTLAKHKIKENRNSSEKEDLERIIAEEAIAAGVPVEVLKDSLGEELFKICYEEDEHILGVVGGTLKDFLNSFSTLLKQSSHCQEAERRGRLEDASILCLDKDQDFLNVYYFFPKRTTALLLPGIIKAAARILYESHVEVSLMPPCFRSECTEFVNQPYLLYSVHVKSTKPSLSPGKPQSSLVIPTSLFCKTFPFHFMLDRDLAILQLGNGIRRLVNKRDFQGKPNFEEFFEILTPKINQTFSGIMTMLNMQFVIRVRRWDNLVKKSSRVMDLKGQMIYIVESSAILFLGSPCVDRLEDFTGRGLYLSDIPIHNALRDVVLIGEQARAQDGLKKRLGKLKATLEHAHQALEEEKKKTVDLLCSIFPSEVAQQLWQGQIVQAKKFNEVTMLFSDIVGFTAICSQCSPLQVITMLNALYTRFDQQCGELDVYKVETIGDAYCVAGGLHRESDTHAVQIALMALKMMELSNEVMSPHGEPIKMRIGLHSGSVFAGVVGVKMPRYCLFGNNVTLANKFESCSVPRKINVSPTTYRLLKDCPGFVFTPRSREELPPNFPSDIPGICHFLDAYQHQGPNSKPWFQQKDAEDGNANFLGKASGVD
T1 sequence (P20595 whole entry): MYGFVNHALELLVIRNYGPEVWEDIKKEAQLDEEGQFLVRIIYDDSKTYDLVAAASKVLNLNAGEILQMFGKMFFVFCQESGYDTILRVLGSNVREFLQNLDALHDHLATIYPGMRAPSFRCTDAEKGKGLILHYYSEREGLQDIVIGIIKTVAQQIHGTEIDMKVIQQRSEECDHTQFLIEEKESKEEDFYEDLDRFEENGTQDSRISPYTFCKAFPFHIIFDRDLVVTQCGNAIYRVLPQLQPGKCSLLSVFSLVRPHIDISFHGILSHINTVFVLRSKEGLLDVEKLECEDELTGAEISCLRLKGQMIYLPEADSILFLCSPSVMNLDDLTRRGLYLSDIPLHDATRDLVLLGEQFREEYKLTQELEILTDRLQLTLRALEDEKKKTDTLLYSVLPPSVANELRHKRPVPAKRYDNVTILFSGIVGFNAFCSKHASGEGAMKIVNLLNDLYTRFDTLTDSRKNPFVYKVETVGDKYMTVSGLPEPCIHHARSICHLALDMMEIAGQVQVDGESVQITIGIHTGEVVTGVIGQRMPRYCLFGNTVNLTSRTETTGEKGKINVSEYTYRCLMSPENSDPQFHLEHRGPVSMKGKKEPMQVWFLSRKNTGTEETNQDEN

| SMILES | Stimulation (x-fold) of recombinant sGC, +0.01 μM DEA/NO (test substance 0.01 μM) | Stimulation (x-fold) of recombinant sGC, +0.01 μM DEA/NO (test substance 0.1 μM) | Stimulation (x-fold) of recombinant sGC, +0.01 μM DEA/NO (test substance 1.0 μM) | Stimulation (x-fold) of recombinant sGC, +0.01 μM DEA/NO (test substance 10 μM) | Stimulation (x-fold) of recombinant sGC, +0.01 μM DEA/NO (test substance 100 μM) | Stimulation (x-fold) of recombinant sGC, +10 μM ODQ (test substance 0.01 μM) | Stimulation (x-fold) of recombinant sGC, +10 μM ODQ (test substance 0.1 μM) | Stimulation (x-fold) of recombinant sGC, +10 μM ODQ (test substance 1.0 μM) | Stimulation (x-fold) of recombinant sGC, +10 μM ODQ (test substance 10 μM) | Stimulation (x-fold) of recombinant sGC, +10 μM ODQ (test substance 100 μM) | Effect of combination with DEA/NO (NO donor) on sGC stimulation | Stimulation (x-fold) of recombinant sGC, Basal (test substance 0.01 μM) | Stimulation (x-fold) of recombinant sGC, Basal (test substance 0.1 μM) | Stimulation (x-fold) of recombinant sGC, Basal (test substance 1.0 μM) | Stimulation (x-fold) of recombinant sGC, Basal (test substance 10 μM) | Stimulation (x-fold) of recombinant sGC, Basal (test substance 100 μM) |
| --- | --- | --- | --- | --- | --- | --- | --- | --- | --- | --- | --- | --- | --- | --- | --- | --- |
| C[C@H]([C@H](C(=O)Nc1cc(CC2(C(=O)O)CC2)ccc1Cl)c1ccc(Cl)cc1)C(F)(F)F [Example 50, (+)-1-(4-Chloro-3-{[(2S,3R)-2-(4-chlorophenyl)-4,4,4-trifluoro-3-methylbutanoyl]amino}benzyl)-cyclopropanecarboxylic acid] | 7.5 ± 1.8 x-fold | 7.6 ± 1.8 x-fold | 9.0 ± 2.0 x-fold | 13.3 ± 2.2 x-fold | 14.6 ± 2.2 x-fold | 9.2 ± 1.4 x-fold | 9.6 ± 1.5 x-fold | 12.7 ± 1.5 x-fold | 21.5 ± 2.2 x-fold | 22.6 ± 2.6 x-fold | no synergistic effect | 1.4 ± 0.1 x-fold | 1.2 ± 0.1 x-fold | 2.6 ± 0.4 x-fold | 6.4 ± 0.6 x-fold | 9.5 ± 0.9 x-fold |
| [2H]C([2H])([2H])OC(c1ccc(Cl)c(NC(=O)[C@H](c2ccc(Cl)cc2)[C@@H](C)C(F)(F)F)c1)C1(C(=O)O)CC1 (single isomer, unassigned; (+)) [Example 99] | 4.0 ± 0.6 x-fold | 4.4 ± 0.8 x-fold | 5.0 ± 1.7 x-fold | 5.3 ± 1.8 x-fold |  | 4.3 ± 0.4 x-fold | 5.7 ± 0.3 x-fold | 9.2 ± 0.9 x-fold | 10.3 ± 1.3 x-fold |  | no synergistic effect | 1.0 ± 0.0 x-fold | 1.5 ± 0.2 x-fold | 1.8 ± 0.3 x-fold | 2.6 ± 0.4 x-fold |  |
